System: rat small-intestinal brush border membrane vesicles
Assay: Inhibitory effect on 33PO4 uptake into rat small-intestinal brush border membrane vesicles (rapid filtration method)
Assay type: biochemical
Details: 33PO4 uptake into rat small-intestinal BBMVs; test compound 1 µM; reacted for 60 seconds
Outline: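 Uptake of ^33PO4 was measured by rapid filtration and liquid scintillation counting of filter-retained vesicles, after quenching with ice-cold 110 mM NaCl/1 mM KH2PO4/10 mM HEPES pH 7.5. Vesicles were brush border membranes from the upper small intestine of female Wistar rats aged 4–5 weeks.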

SMILES	Rate of uptake inhibition (%) (1 µM)
CN(C)CC(C)(C)COc1ccc(CN2C(=O)C(C(=O)Nc3ccc(C(F)(F)F)cc3-c3cc(C(F)(F)F)ncn3)=C(O)C3(CCCC3)N2C)c(F)c1F [Example 414, 7-(4-(3-(Dimethylamino)-2,2-dimethylpropoxy)-2,3-difluorobenzyl)-10-hydroxy-6-methyl-8-oxo-N-(4-(trifluoromethyl)-2-(6-(trifluoromethyl)pyrimidin-4-yl)phenyl)-6,7-diazaspiro[4.5]dec-9-ene-9-carboxamide]	27
COCCN(C)CCNc1ccc(CN2C(=O)C(C(=O)Nc3ccc(C(F)(F)F)cc3-c3cc(C(F)(F)F)ncn3)=C(O)C3(CCCC3)N2C)c(F)c1F [Example 417, 7-(2,3-Difluoro-4-((2-((2-methoxyethyl)(methyl)amino)ethyl)amino)benzyl)-10-hydroxy-6-methyl-8-oxo-N-(4-(trifluoromethyl)-2-(6-(trifluoromethyl)pyrimidin-4-yl)phenyl)-6,7-diazaspiro[4.5]dec-9-ene-9-carboxamide]	48
CN(C[C@H](O)[C@@H](O)[C@H](O)[C@H](O)CO)C(=O)CCCOc1ccc(CN2C(=O)C(C(=O)Nc3ccc(C(F)(F)F)cc3-c3cc(C(F)(F)F)ncn3)=C(O)C3(CCCC3)N2C)c(F)c1F [Example 418, 7-[[2,3-Difluoro-4-[4-[methyl-[(2S,3R,4R,5R)-2,3,4,5,6-pentahydroxyhexyl]amino]-4-oxobutoxy]phenyl]methyl]-10-hydroxy-6-methyl-8-oxo-N-[4-(trifluoromethyl)-2-[6-(trifluoromethyl)pyrimidin-4-yl]phenyl]-6,7-diazaspiro[4.5]dec-9-ene-9-carboxamide]	29
CN1N(Cc2ccc(OCCOCCNCC(O)CO)c(F)c2F)C(=O)C(C(=O)Nc2ccc(C(F)(F)F)cc2-c2cc(C(F)(F)F)ncn2)=C(O)C12CCCC2 (centres unmarked) [Example 419, 7-[[4-[2-[2-(2,3-Dihydroxypropylamino)ethoxy]ethoxy]-2,3-difluorophenyl]methyl]-10-hydroxy-6-methyl-8-oxo-N-[4-(trifluoromethyl)-2-[6-(trifluoromethyl)pyrimidin-4-yl]phenyl]-6,7-diazaspiro[4.5]dec-9-ene-9-carboxamide]	22
CN(CCOCCOc1ccc(CN2C(=O)C(C(=O)Nc3ccc(C(F)(F)F)cc3-c3cc(C(F)(F)F)ncn3)=C(O)C3(CCCC3)N2C)c(F)c1F)C[C@H](O)[C@@H](O)[C@H](O)[C@H](O)CO [Example 420, 7-[[2,3-Difluoro-4-[2-[2-[methyl-[(2S,3R,4R,5R)-2,3,4,5,6-pentahydroxyhexyl]amino]ethoxy]ethoxy]phenyl]methyl]-10-hydroxy-6-methyl-8-oxo-N-[4-(trifluoromethyl)-2-[6-(trifluoromethyl)pyrimidin-4-yl]phenyl]-6,7-diazaspiro[4.5]dec-9-ene-9-carboxamide]	19
CN(CCOCCOCCOCCOCCOc1ccc(CN2C(=O)C(C(=O)Nc3ccc(C(F)(F)F)cc3-c3cc(C(F)(F)F)ncn3)=C(O)C3(CCCC3)N2C)c(F)c1F)C[C@@H](O)[C@H](O)[C@@H](O)[C@@H](O)CO [Example 421, 7-[[2,3-Difluoro-4-[2-[2-[2-[2-[2-[methyl-[(2R,3S,4S,5S)-2,3,4,5,6-pentahydroxyhexyl]amino]ethoxy]ethoxy]ethoxy]ethoxy]ethoxy]phenyl]methyl]-10-hydroxy-6-methyl-8-oxo-N-[4-(trifluoromethyl)-2-[6-(trifluoromethyl)pyrimidin-4-yl]phenyl]-6,7-diazaspiro[4.5]dec-9-ene-9-carboxamide]	24
CN(C[C@H](O)[C@@H](O)[C@H](O)[C@H](O)CO)C(=O)CCOCCOCCOc1ccc(CN2C(=O)C(C(=O)Nc3ccc(C(F)(F)F)cc3-c3cc(C(F)(F)F)ncn3)=C(O)C3(CCCC3)N2C)c(F)c1F [Example 422]	29
CN(C[C@H](O)[C@@H](O)[C@H](O)[C@H](O)CO)C(=O)CCOCCOCCOCCOc1ccc(CN2C(=O)C(C(=O)Nc3ccc(C(F)(F)F)cc3-c3cc(C(F)(F)F)ncn3)=C(O)C3(CCCC3)N2C)c(F)c1F [Example 423]	5
CN1N(Cc2ccc(OCCOCCOCCOCCC(=O)NCC(O)CO)c(F)c2F)C(=O)C(C(=O)Nc2ccc(C(F)(F)F)cc2-c2cc(C(F)(F)F)ncn2)=C(O)C12CCCC2 (centres unmarked) [Example 424]	17
CN(CCOCCC(=O)N(C)C[C@H](O)[C@@H](O)[C@H](O)[C@H](O)CO)CCOc1ccc(CN2C(=O)C(C(=O)Nc3ccc(C(F)(F)F)cc3-c3cc(C(F)(F)F)ncn3)=C(O)C3(CCCC3)N2C)c(F)c1F [Example 425]	5
CN(CCOCCC(=O)NCC(O)CO)CCOc1ccc(CN2C(=O)C(C(=O)Nc3ccc(C(F)(F)F)cc3-c3cc(C(F)(F)F)ncn3)=C(O)C3(CCCC3)N2C)c(F)c1F (centres unmarked) [Example 426]	24
CN1N(Cc2ccc(OCCOCCNC(=O)[C@@H](O)[C@H](O)[C@@H](O)[C@@H](O)CO)c(F)c2F)C(=O)C(C(=O)Nc2ccc(C(F)(F)F)cc2-c2cc(C(F)(F)F)ncn2)=C(O)C12CCCC2 [Example 427, 7-[[2,3-Difluoro-4-[2-[2-[[(2S,3R,4S,5S)-2,3,4,5,6-pentahydroxyhexanoyl]amino]ethoxy]ethoxy]phenyl]methyl]-10-hydroxy-6-methyl-8-oxoN-[4-(trifluoromethyl)-2-[6-(trifluoromethyl)pyrimidin-4-yl]phenyl]-6,7-diazaspiro[4.5]dec-9-ene-9-carboxamide]	12
CN1N(Cc2ccc(OCCOCCOCCOCCNC(=O)[C@@H](O)[C@H](O)[C@@H](O)[C@@H](O)CO)c(F)c2F)C(=O)C(C(=O)Nc2ccc(C(F)(F)F)cc2-c2cc(C(F)(F)F)ncn2)=C(O)C12CCCC2 [Example 428, 7-[[2,3-Difluoro-4-[2-[2-[2-[2-[[(2S,3R,4S,5S)-2,3,4,5,6-pentahydroxyhexanoyl]amino]ethoxy]ethoxy]ethoxy]ethoxy]phenyl]methyl]-10-hydroxy-6-methyl-8-oxo-N-[4-(trifluoromethyl)-2-[6-(trifluoromethyl)pyrimidin-4-yl]phenyl]-6,7-diazaspiro[4. 5]dec-9-ene-9-carboxamide]	14
COCCN(C)CCOCCOc1ccc(CN2C(=O)C(C(=O)Nc3ccc(C(F)(F)F)cc3-c3cc(C(F)(F)F)ncn3)=C(O)C3(CCCC3)N2C)c(F)c1F [Example 429, 7-[[2,3-Difluoro-4-[2-[2-[2-methoxyethyl(methyl)amino]ethoxy]ethoxy]phenyl]methyl]-10-hydroxy-6-methyl-8-oxo-N-[4-(trifluoromethyl)-2-[6-(trifluoromethyl)pyrimidin-4-yl]phenyl]-6,7-diazaspiro[4.5]dec-9-ene-9-carboxamide]	41
COCCN(C)CCOCCOCCOc1ccc(CN2C(=O)C(C(=O)Nc3ccc(C(F)(F)F)cc3-c3cc(C(F)(F)F)ncn3)=C(O)C3(CCCC3)N2C)c(F)c1F [Example 430]	29
COCCN(C)CCOCCOCCOCCOc1ccc(CN2C(=O)C(C(=O)Nc3ccc(C(F)(F)F)cc3-c3cc(C(F)(F)F)ncn3)=C(O)C3(CCCC3)N2C)c(F)c1F [Example 431]	26
COCCN(C)CCOCCOCCOCCOCCOc1ccc(CN2C(=O)C(C(=O)Nc3ccc(C(F)(F)F)cc3-c3cc(C(F)(F)F)ncn3)=C(O)C3(CCCC3)N2C)c(F)c1F [Example 432]	11

Source: EP3928779A1 (Chugai Seiyaku Kabushiki Kaisha, priority 2014, dated 2016)
